In patent publication US20090222938A1, “Therapeutic Target Molecules For The Development of Novel Medicaments for Degenerative Diseases” (Neuroprofile GMBH, priority 2006, published 2009):

Legend:
Type in all cases: cell-based
[1] = test system: NPC2-mRNA in NT2-N neurons; experiment: NPC2 mRNA quantitative real-time RT-PCR after stressor treatment
[2] = test system: BRI3-mRNA in NT2-N neurons; experiment: BRI3 mRNA quantitative real-time RT-PCR after stressor treatment
Description: This increase may be quantified by means of a quantitative real-time RT-PCR analysis (qRTRTPCR) with fluorescence labelling by SYBR Green 1.

[3] = test system: SCD-mRNA in NT2-N neurons; experiment: SCD mRNA quantitative real-time RT-PCR after stressor treatment; settings: 15 day treatment
[4] = test system: MAC30-mRNA in NT2-N neuron cells; experiment: MAC30 mRNA quantitative real-time RT-PCR (SYBR Green 1) after stressor treatment
Description: The MAC30-mRNA increase may be quantified by a quantitative real-time RT-PCR analysis (qRTRTPCR) with fluorescence labelling by SYBR Green 1.

[5] = test system: LOC222171-mRNA in NT2-N neurons; experiment: LOC222171 mRNA quantitative real-time RT-PCR after stressor treatment; settings: 15 days of treatment
Description: This increase was quantified by means of a quantitative real time RT-PCR analysis (qRTRTPCR) featuring fluorescence labelling by SYBR-Green 1. […] The PCR primer pair LOC222171-For1 (5′-[sequence]-3′) (SEQ ID NO: 120) and LOC222171-Rev2 (5′-[sequence]-3′) (SEQ ID NO: 121) is suitable for the analysis of the LOC222171 mRNA by means of qRTRTPCR.

[6] = test system: CUEDC1-mRNA in NT2-N neurons; experiment: CUEDC1 mRNA quantitative real-time RT-PCR after stressor treatment; settings: 15 days of chronic oxidative stress
Description: This increase was further quantified by means of a quantitative real time RT-PCR analysis (qRTRTPCR) with fluorescence labelling by SYBR-Green 1. […] The PCR primer pair CUEDC1-For1 (5′-[sequence]-3′) (SEQ ID NO: 122) and CUEDC1-Rev2 (5′-[sequence]-3′) (SEQ ID NO: 123) is suitable for the analysis of the CUEDC1 mRNA by means of qRTRTPCR.

NT2-N neuron cells = experiment: Live/Dead-Viability/Cytotoxicity Assay, survival of neurons under chronic sublethal oxidative stressor; settings: stressor 1.0-25 μM, serum-free; more than 3 days after the time point of sampling
Description: The increase of MAC30-mRNA in NT2-N neuron cells (Andrews P. W., Dev. Biol., 103, pp 285-293, 1984; Pleasure S. J., Page C., Lee V. M.-Y., J. Neurosci., 12, pp 1802-1815, 1992) has been detected in microarray analyses using fluorescence-labelled cDNA after treating the cells under serum-free conditions with chronic sublethal concentrations of the oxidative stressor haloperidol (Sigma; catalogue No. H-1512). Appropriate conditions for an optimal survival rate of the cells were obtained by means of the Live/Dead-Viability/Cytotoxicity Assay (Molecular Probes) according to the manual of the manufacturer. […] 2′,7′-dichlorodihydrofluorescein-diacetate (Sigma, catalogue No. D6883) was used for determining total cell quantity of ROS. […] Subsequently, the cells were homogenized by sonication, centrifugated (20 minutes, 4° C., 20.000×g), and the fluorescence of the supernatant was measured. […] The relative increase of ROS was calculated in relation to the control. Further, ROS was determined by means of dihydroethidium (DHE; Sigma catalogue No. D7008). 5 μM DHE was added into an aliquot of the scraped cells, incubated for 1 hour at 37° C., processed analogous to the DCFDA procedure, and the fluorescence of the supernatant was determined. The protein adjusted alteration of mitochondrial ROS was calculated in relation to the untreated control. […]

[7] = test system: IDI1 protein in NT2-N neurons; experiment: IDI1 protein quantity by two dimensional polyacrylamid gel electrophoresis and mass spectrometric identification; settings: 15 day treatment
Description: The increase of the IDI1 protein (IDI1=Isopentenyl-diphosphate delta isomerase 1; =Isopentenyl diphosphate dimethylallyl diphosphate isomerase 1) was detected with a two dimensional polyacrylamid gel electrophoresis after treatment of NT2-N neurons with haloperidol (as described in example 1) and subsequent mass spectrometric identification of the protein spot.

[8] = test system: G1P3-mRNA in NT2-N neurons; experiment: G1P3 mRNA quantitative real-time RT-PCR after stressor treatment
Description: The increase was quantified by means of a quantitative real-time RT-PCR analysis (qRTRTPCR) with fluorescence labeling by SYBR Green 1. […] The PCR primer pair G1P3-For1 (5′-[sequence]-3′) (SEQ ID NO: 118) and GIP3-Rev2 (5′-[sequence]-3′) (SEQ ID NO: 119) is suitable for the analysis of the G1P3 mRNA by means of qRTRTPCR.

[9] = longer treatment, 'may achieve up to ... or more'

For `O=C(CCCN1CCC(O)(c2ccc(Cl)cc2)CC1)c1ccc(F)cc1` [haloperidol], the NPC2-mRNA increase ([1]; 15 days of chronic sublethal oxidative stress) was no less than 50%, the “NPC2-mRNA increase in comparison to untreated neurons” value ([1]; after 3 days) was “significant increase” and the BRI3-mRNA increase ([2]; 8-day treatment) was no less than 40%. The BRI3-mRNA increase ([2]; 3 days after treatment) was “increase can be detected”, the BRI3-mRNA increase [2, 9] was no less than 200% and the “SCD-mRNA increase in comparison to untreated neurons” value [3] was no less than 50%. The MAC30-mRNA increase ([4]; 8-day treatment, 1.0-25 μM) was “at least 50%”, the MAC30-mRNA increase [4, 9] was no less than 200% and the LOC222171-mRNA increase [5] was no less than 50%. The CUEDC1-mRNA increase [6] was “more than 30%”, the neurons alive (NT2-N neuron cells) was “More than 75%” and the IDI1-protein quantity increase [7] was no less than 30%. The G1P3-mRNA increase ([8]; 8-day treatment) was no less than 50%, the G1P3-mRNA increase ([8]; after 3 days) was “marked increase” and the G1P3-mRNA increase [8, 9] was no less than 400%.
